Data: article PMC6980832, “Crystal structures of Triosephosphate Isomerases from Taenia solium and Schistosoma mansoni provide insights for vaccine rationale and drug design against helminth parasites” (PLoS Neglected Tropical Diseases, 2020)

What was measured:
TsTPI = target: T1, TsTPI (Taenia solium, UniProt Q9GTX8); assay: X-ray crystal structure of the complex; assay type: binding; conditions: co-crystallised with 10 mM 2-PGA; active site, closed loop 6; 2.1 Å
T1 construct: full length, codon-optimised synthetic gene, E. coli tpi-null strain, modified pET19; extra Gly-Pro-His before Met1; homodimer

SmTPI = target: T2, SmTPI (Schistosoma mansoni, UniProt P48501); assay: X-ray crystal structure of the complex; assay type: binding; conditions: co-crystallised with 10 mM 2-PGA; active site, closed loop 6; 2.3 Å; bound in all 8 monomers
T2 construct: gene TPI; full length, codon-optimised synthetic gene, E. coli tpi-null strain, modified pET19; extra Gly-Pro-His before Met1; homodimer about 50 kDa
T2 sequence (P48501 whole entry): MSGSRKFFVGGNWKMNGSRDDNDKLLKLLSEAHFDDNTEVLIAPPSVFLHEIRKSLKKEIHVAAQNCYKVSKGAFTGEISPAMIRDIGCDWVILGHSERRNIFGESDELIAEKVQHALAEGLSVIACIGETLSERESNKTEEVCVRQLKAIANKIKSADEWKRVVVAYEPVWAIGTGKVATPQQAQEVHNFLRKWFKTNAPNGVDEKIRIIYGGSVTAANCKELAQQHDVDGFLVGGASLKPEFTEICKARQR

T1 sequence (Q9GTX8 whole entry): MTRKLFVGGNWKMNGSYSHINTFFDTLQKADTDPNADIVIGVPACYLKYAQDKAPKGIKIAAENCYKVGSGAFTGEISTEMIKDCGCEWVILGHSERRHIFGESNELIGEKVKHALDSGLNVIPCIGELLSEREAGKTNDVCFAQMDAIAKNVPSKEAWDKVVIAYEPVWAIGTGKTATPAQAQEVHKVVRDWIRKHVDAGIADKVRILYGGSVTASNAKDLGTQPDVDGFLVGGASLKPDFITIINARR

## O=C(O)[C@@H](CO)OP(=O)(O)O [2-PGA, 2-phosphoglyceric acid]
TsTPI
  X-ray crystal structure of the complex: We solved the crystal structures of TsTPI and SmTPI in complex with the inhibitor 2-PGA
SmTPI
  X-ray crystal structure of the complex: We solved the crystal structures of TsTPI and SmTPI in complex with the inhibitor 2-PGA
